Experiments:
Assay type in all cases: cell-based
P. rettgeri = assay: Substrate hydrolysis on Columbia agar; conditions: P. rettgeri NCTC 7475; 300 mg/l; 18 hours
[1] = tested on: Streptococcus vestibularis; assay: Substrate hydrolysis on Columbia agar; conditions: Streptococcus vestibularis NCTC 12166; 300 mg/l; 18 hours
Serratia spp. = assay: Substrate hydrolysis on Columbia agar; conditions: 300 mg/l, 18 hours
P. mirabilis = assay: Substrate hydrolysis on Columbia agar; conditions: 300 mg/l, 18 hours
Salmonella orthmarchen = assay: Substrate hydrolysis on Columbia agar; conditions: Salmonella orthmarchen SAX 59; 300 mg/l; 18 hours
Providencia stuartii = assay: Substrate hydrolysis on Columbia agar; conditions: 300 mg/l, 18 hours
E. coli 0157 = assay: Substrate hydrolysis on Columbia agar; conditions: 300 mg/l, 18 hours
[2] = tested on: Staphylococcus epidermidis; assay: Substrate hydrolysis on Columbia agar; conditions: 300 mg/l, 18 hours
Streptococcus salivarius = assay: Substrate hydrolysis on Columbia agar; conditions: Streptococcus salivarius NCTC 8618; 300 mg/l; 18 hours
[3] = tested on: Haemolytic streptococcus A; assay: Substrate hydrolysis on Columbia agar; conditions: 300 mg/l, 18 hours
Vibrio metschnikovii = assay: Substrate hydrolysis on Columbia agar; conditions: Vibrio metschnikovii NCTC 8443; 300 mg/l; 18 hours
Streptococcus milleri = assay: Substrate hydrolysis on Columbia agar; conditions: Streptococcus milleri wild; 300 mg/l; 18 hours
Vibrio furnissii = assay: Substrate hydrolysis on Columbia agar; conditions: Vibrio furnissii NCTC 11218; 300 mg/l; 18 hours
Vibrio harveyi = assay: Substrate hydrolysis on Columbia agar; conditions: Vibrio harveyi NCTC 11346; 300 mg/l; 18 hours
M. morganii = assay: Substrate hydrolysis on Columbia agar; conditions: 300 mg/l, 18 hours
Bacillus licusniforms = assay: Substrate hydrolysis on Columbia agar; conditions: Bacillus licusniforms NCIMB 9375; 300 mg/l; 18 hours
P. penneri = assay: Substrate hydrolysis on Columbia agar; conditions: P. penneri PPE 1; 300 mg/l; 18 hours
Gram positive bacteria = assay: Substrate hydrolysis on Columbia agar, summary of screen
Shigella flexneri = assay: Substrate hydrolysis on Columbia agar; conditions: 300 mg/l, 18 hours
Source text: (§1) This was achieved using a densitometer.
(§2) The same method was used as in Example 1.

Salmonella motevideo = assay: Substrate hydrolysis on Columbia agar; conditions: Salmonella motevideo SAX 55; 300 mg/l; 18 hours
Source text: as §1, §2

Salmonella alachia = assay: Substrate hydrolysis on Columbia agar; conditions: Salmonella alachia SAX 60; 300 mg/l; 18 hours
Source text: as §1, §2

Shigella sonnei = assay: Substrate hydrolysis on Columbia agar; conditions: 300 mg/l, 18 hours
Source text: as §1, §2

Shigella boydii = assay: Substrate hydrolysis on Columbia agar; conditions: 300 mg/l, 18 hours
Source text: as §1, §2

Vibrio mimicus = assay: Substrate hydrolysis on Columbia agar; conditions: Vibrio mimicus NCTC 11435; 300 mg/l; 18 hours
Source text: as §1, §2

Streptococcus crista = assay: Substrate hydrolysis on Columbia agar; conditions: Streptococcus crista NCTC 12479; 300 mg/l; 18 hours
Vibrio anguillarum = assay: Substrate hydrolysis on Columbia agar; conditions: Vibrio anguillarum NCTC 12159; 300 mg/l; 18 hours
A. baumanii = assay: Substrate hydrolysis on Columbia agar; conditions: A. baumanii ATCC 19606; 300 mg/l; 18 hours
[4] = tested on: Haemolytic streptococcus B; assay: Substrate hydrolysis on Columbia agar; conditions: 300 mg/l, 18 hours
Vibrio parahaemolyticus = assay: Substrate hydrolysis on Columbia agar; conditions: 300 mg/l, 18 hours
Enterococcus mundtii = assay: Substrate hydrolysis on Columbia agar; conditions: Enterococcus mundtii NCTC 12363; 300 mg/l; 18 hours

For “3′,4′-dihydroxyflavone-4′-β-D-glucopyranoside sodium salt [DHF-glucoside]”, the “Hydrolysis by Gram negative bacteria” value (P. rettgeri) was “+”, the “Hydrolysis by Gram positive organisms” value [1] was “−” and the “Hydrolysis by Gram negative bacteria” value (Serratia spp.; Serratia spp. SEX 1) was “+”. For the same substance, the “Hydrolysis by Gram negative bacteria” value (Serratia spp.; Serratia spp. SEX 2) was “+”, the “Hydrolysis by Gram negative bacteria” value (P. mirabilis; P. mirabilis NCTC 10975) was “−” and the “Hydrolysis by Gram negative bacteria” value (P. mirabilis; P. mirabilis PMI 1) was “−”. The “Hydrolysis by Gram negative bacteria” value (P. mirabilis; P. mirabilis PMI 2) was “−”, the “Hydrolysis by Gram negative bacteria” value (Salmonella orthmarchen) was “−” and the “Hydrolysis by Gram negative bacteria” value (Providencia stuartii; Providencia stuartii PST 1) was “+”. For the same substance, the “Hydrolysis by Gram negative bacteria” value (Providencia stuartii; Providencia stuartii PST 2) was “+”, the “Hydrolysis by Gram negative bacteria” value (E. coli 0157; E. coli 0157 NCTC 12079) was “−” and the “Hydrolysis by Gram negative bacteria” value (E. coli 0157; E. coli 0157 NCTC 12080) was “−”. For the same substance, the “Hydrolysis by Gram negative bacteria” value (E. coli 0157; E. coli 0157 NCTC 12900) was “−”, the “Hydrolysis by Gram negative bacteria” value (E. coli 0157; E. coli 0157 NCTC 13125) was “−” and the “Hydrolysis by Gram negative bacteria” value (E. coli 0157; E. coli 0157 NCTC 13126) was “−”. The “Hydrolysis by Gram negative bacteria” value (E. coli 0157; E. coli 0157 NCTC 13127) was “−”, the “Hydrolysis by Gram negative bacteria” value (E. coli 0157; E. coli 0157 NCTC 13128) was “−” and the “Hydrolysis by Gram positive organisms” value ([2]; Staphylococcus epidermidis RB60) was “−”. The “Hydrolysis by Gram positive organisms” value ([2]; Staphylococcus epidermidis RB62) was “−”, the “Hydrolysis by Gram positive organisms” value ([2]; Staphylococcus epidermidis RB63) was “−” and the “Hydrolysis by Gram positive organisms” value ([2]; Staphylococcus epidermidis RB64) was “++”. For the same substance, the “Hydrolysis by Gram positive organisms” value ([2]; Staphylococcus epidermidis RB65) was “−”, the “Hydrolysis by Gram positive organisms” value (Streptococcus salivarius) was “++” and the “Hydrolysis by Gram positive organisms” value ([3]; Haemolytic streptococcus A 1) was “−”. The “Hydrolysis by Gram positive organisms” value ([3]; Haemolytic streptococcus A 2) was “−”, the “Hydrolysis by Gram positive organisms” value ([3]; Haemolytic streptococcus A 3) was “−” and the “Hydrolysis by Gram negative bacteria” value (Vibrio metschnikovii) was “−”. For the same substance, the “Hydrolysis by Gram positive organisms” value (Streptococcus milleri) was “−”, the “Hydrolysis by Gram negative bacteria” value (Vibrio furnissii) was “−” and the “Hydrolysis by Gram negative bacteria” value (Vibrio harveyi) was “+”. For the same substance, the “Hydrolysis by Gram negative bacteria” value (M. morganii; M. morganii MMO 1) was “+”, the “Hydrolysis by Gram negative bacteria” value (M. morganii; M. morganii MMO 2) was “+” and the “Hydrolysis by Gram negative bacteria” value (M. morganii; M. morganii NCTC 235) was “−”. For the same substance, the “Hydrolysis by Gram positive organisms” value (Bacillus licusniforms) was “+”, the “Hydrolysis by Gram negative bacteria” value (P. penneri) was “−” and the “colony colour and diffusion” value (Gram positive bacteria; Strains of Listeria and enterococci) was “intense black colonies with no diffusion of the black chelate”. The “Gram positive bacteria tested that hydrolysed the substrate” value (Gram positive bacteria; of 74 Gram positive bacteria tested, 300 mg/l, 18 hours) was 22.5%, the “Hydrolysis by Gram negative bacteria” value (Shigella flexneri; Shigella flexneri NCTC 8192) was “−” and the “Hydrolysis by Gram negative bacteria” value (Shigella flexneri; Shigella flexneri NCTC 9723) was “−”. The “Hydrolysis by Gram negative bacteria” value (Shigella flexneri; Shigella flexneri NCTC 9780) was “−”, the “Hydrolysis by Gram negative bacteria” value (Salmonella motevideo) was “−” and the “Hydrolysis by Gram negative bacteria” value (Salmonella alachia) was “−”. The “Hydrolysis by Gram negative bacteria” value (Shigella sonnei; Shigella sonnei NCTC 8219) was “−”, the “Hydrolysis by Gram negative bacteria” value (Shigella sonnei; Shigella sonnei NCTC 8574) was “−” and the “Hydrolysis by Gram negative bacteria” value (Shigella sonnei; Shigella sonnei NCTC 8586) was “−”. The “Hydrolysis by Gram negative bacteria” value (Shigella sonnei; Shigella sonnei NCTC 9774) was “−”, the “Hydrolysis by Gram negative bacteria” value (Shigella sonnei; Shigella sonnei NCTC 10352) was “−” and the “Hydrolysis by Gram negative bacteria” value (Shigella boydii; Shigella boydii NCTC 9327) was “−”. The “Hydrolysis by Gram negative bacteria” value (Shigella boydii; Shigella boydii NCTC 9732) was “−”, the “Hydrolysis by Gram negative bacteria” value (Shigella boydii; Shigella boydii NCTC 9850) was “−” and the “Hydrolysis by Gram negative bacteria” value (Vibrio mimicus) was “−”. For the same substance, the “Hydrolysis by Gram positive organisms” value (Streptococcus crista) was “−”, the “Hydrolysis by Gram negative bacteria” value (Vibrio anguillarum) was “−” and the “Hydrolysis by Gram negative bacteria” value (A. baumanii) was “−”. For the same substance, the “Hydrolysis by Gram positive organisms” value ([4]; Haemolytic streptococcus B 1) was “−”, the “Hydrolysis by Gram positive organisms” value ([4]; Haemolytic streptococcus B 2) was “−” and the “Hydrolysis by Gram positive organisms” value ([4]; Haemolytic streptococcus B 3) was “−”. For the same substance, the “Hydrolysis by Gram negative bacteria” value (Vibrio parahaemolyticus; Vibrio parahaemolyticus NCTC 10441) was “−”, the “Hydrolysis by Gram negative bacteria” value (Vibrio parahaemolyticus; Vibrio parahaemolyticus NCTC 10884) was “−” and the “Hydrolysis by Gram negative bacteria” value (Vibrio parahaemolyticus; Vibrio parahaemolyticus NCTC 10903) was “−”. For the same substance, the “Hydrolysis by Gram negative bacteria” value (Vibrio parahaemolyticus; Vibrio parahaemolyticus NCTC 11344) was “−”, the “Hydrolysis by Gram negative bacteria” value (Vibrio parahaemolyticus; Vibrio parahaemolyticus NCTC 12205) was “−” and the “Hydrolysis by Gram positive organisms” value (Enterococcus mundtii) was “++”.
